Data: ChEMBL document CHEMBL1128191, “1-(1-[4-[(N-acetyl-4-piperidinyl)oxy]-2-methoxybenzoyl]piperidin-4-yl)-4H-3,1-benzoxazin-2(1H)-one (L-371,257): a new, orally bioavailable, non-peptide oxytocin antagonist” (J Med Chem, 1995)

How the values were obtained:
Vasopressin V2 receptor [1] = biological target: T1, Vasopressin V2 receptor (Rattus norvegicus, UniProt Q00788); assay: Binding affinity was evaluated by measuring the displacement of [3H]-AVP (arginine vasopressin) from specific binding sites in kidney medulla obtained from rats; type: tissue-based
Vasopressin V1a receptor [2] = biological target: T2, Vasopressin V1a receptor (Homo sapiens, UniProt P37288); assay: Binding affinity was evaluated by measuring the displacement of [3H]AVP (arginine vasopressin) from specific binding sites in human platelets
Oxytocin receptor [3] = biological target: T3, Oxytocin receptor (Rattus norvegicus, UniProt P70536); assay: Binding affinity was evaluated by measuring the displacement of [3H]-OT (oxytocin) from specific binding sites in uterine tissue obtained from rats
T3 sequence (P70536 whole entry): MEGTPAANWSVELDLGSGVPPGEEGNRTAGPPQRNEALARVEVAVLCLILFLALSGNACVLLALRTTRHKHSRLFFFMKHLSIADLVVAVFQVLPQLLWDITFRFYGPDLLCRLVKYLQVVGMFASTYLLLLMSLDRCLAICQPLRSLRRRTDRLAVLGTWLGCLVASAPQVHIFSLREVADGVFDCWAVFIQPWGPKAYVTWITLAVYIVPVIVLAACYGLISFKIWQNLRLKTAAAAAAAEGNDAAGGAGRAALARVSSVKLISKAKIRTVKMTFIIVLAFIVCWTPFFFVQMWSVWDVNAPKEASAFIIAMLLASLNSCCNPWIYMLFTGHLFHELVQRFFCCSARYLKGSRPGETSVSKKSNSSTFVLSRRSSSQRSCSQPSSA

Vasopressin V1a receptor [4] = biological target: T4, Vasopressin V1a receptor (Rattus norvegicus, UniProt P30560); assay: Binding affinity was evaluated by measuring the displacement of [3H]AVP (arginine vasopressin) from specific binding sites in rat liver
Oxytocin receptor [5] = biological target: T5, Oxytocin receptor (Homo sapiens, UniProt P30559); assay: Binding affinity was evaluated by measuring the displacement of [3H]OT (oxytocin) from specific binding sites in uterine tissue obtained from human
T5 sequence (P30559 whole entry): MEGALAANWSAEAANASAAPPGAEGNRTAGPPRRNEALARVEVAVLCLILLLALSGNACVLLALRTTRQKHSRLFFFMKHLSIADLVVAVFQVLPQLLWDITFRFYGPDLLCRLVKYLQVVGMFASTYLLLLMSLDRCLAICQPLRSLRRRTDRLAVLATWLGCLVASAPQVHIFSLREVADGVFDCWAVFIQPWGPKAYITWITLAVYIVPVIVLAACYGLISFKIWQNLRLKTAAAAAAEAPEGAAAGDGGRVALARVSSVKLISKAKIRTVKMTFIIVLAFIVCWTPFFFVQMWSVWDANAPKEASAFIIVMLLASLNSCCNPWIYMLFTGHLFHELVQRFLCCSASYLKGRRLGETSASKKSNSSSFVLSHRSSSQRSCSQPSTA

Oxytocin receptor [6] = biological target: T5, Oxytocin receptor; assay: Binding affinity was evaluated by measuring the displacement of [3H]-OT (oxytocin) from specific binding sites in uterine tissue obtained from human.
Vasopressin V1a receptor [7] = biological target: T4, Vasopressin V1a receptor; assay: Binding affinity was evaluated by measuring the displacement of [3H]AVP (arginine vasopressin) from specific binding sites in rat liver.
Vasopressin V2 receptor [8] = biological target: T1, Vasopressin V2 receptor; assay: Binding affinity was evaluated by measuring the displacement of [3H]AVP (arginine vasopressin) from specific binding sites in kidney medulla obtained from rats.; type: tissue-based
Vasopressin V1a receptor [9] = biological target: T2, Vasopressin V1a receptor; assay: Binding affinity was evaluated by measuring the displacement of [3H]AVP (arginine vasopressin) from specific binding sites in human platelets.
Vasopressin V2 receptor [10] = biological target: T6, Vasopressin V2 receptor (Homo sapiens, UniProt P30518); assay: Binding affinity was evaluated by measuring the displacement of [3H]-AVP (arginine vasopressin) from specific binding sites in kidney medulla obtained from early postmortem human donors; type: tissue-based
Vasopressin V2 receptor [11] = biological target: T6, Vasopressin V2 receptor; assay: Binding affinity was evaluated by measuring the displacement of [3H]AVP (arginine vasopressin) from specific binding sites in kidney medulla obtained from early postmortem human donors.; type: tissue-based

T1 sequence (Q00788 whole entry): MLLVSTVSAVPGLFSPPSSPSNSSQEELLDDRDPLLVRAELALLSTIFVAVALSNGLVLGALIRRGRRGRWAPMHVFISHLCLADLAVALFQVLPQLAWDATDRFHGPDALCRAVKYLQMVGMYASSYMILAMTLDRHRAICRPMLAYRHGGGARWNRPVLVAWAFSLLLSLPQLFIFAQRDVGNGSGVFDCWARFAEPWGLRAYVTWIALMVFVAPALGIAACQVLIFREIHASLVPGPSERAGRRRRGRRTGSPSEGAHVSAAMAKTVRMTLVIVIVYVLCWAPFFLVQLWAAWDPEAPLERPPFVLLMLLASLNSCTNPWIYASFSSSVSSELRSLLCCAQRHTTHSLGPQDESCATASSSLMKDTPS
T4 sequence (P30560 whole entry): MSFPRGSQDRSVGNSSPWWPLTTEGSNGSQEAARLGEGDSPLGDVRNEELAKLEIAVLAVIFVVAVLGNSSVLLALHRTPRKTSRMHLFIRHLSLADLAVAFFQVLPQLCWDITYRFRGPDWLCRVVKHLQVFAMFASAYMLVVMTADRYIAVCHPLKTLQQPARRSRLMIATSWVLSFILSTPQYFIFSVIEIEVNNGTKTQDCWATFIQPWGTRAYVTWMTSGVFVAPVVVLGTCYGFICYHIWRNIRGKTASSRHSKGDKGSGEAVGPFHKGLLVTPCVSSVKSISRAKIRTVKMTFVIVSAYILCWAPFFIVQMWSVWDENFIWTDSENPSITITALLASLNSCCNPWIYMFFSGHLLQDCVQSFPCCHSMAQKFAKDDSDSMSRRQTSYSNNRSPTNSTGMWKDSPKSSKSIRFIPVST
T2 sequence (P37288 whole entry): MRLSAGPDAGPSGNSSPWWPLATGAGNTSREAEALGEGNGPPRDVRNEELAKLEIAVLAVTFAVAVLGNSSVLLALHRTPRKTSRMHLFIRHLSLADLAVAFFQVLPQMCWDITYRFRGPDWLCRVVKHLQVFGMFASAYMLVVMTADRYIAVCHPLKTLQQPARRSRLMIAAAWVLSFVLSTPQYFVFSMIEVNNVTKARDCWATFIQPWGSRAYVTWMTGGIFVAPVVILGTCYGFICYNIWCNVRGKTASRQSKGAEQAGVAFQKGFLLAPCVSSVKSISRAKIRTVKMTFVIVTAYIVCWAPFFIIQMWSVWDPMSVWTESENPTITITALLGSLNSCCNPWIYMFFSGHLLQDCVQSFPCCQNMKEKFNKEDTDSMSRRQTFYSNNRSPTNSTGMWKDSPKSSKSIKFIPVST
T6 sequence (P30518 whole entry): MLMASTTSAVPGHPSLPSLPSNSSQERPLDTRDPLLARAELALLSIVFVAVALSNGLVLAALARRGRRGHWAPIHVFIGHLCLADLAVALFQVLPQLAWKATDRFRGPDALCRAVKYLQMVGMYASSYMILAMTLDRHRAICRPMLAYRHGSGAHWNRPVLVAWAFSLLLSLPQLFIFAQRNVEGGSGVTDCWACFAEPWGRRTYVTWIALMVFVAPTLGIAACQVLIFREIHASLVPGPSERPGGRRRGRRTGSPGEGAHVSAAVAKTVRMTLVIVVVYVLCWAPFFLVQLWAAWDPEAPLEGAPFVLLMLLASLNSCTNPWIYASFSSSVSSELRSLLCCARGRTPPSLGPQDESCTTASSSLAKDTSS

Compound	Ki (Vasopressin V2 receptor [1]) [nM]	Ki (Vasopressin V1a receptor [2]) [nM]	Ki (Oxytocin receptor [3]) [nM]	Ki (Vasopressin V1a receptor [4]) [nM]	Ki (Oxytocin receptor [5]) [nM]	Ki (Oxytocin receptor [6]) [nM]	Ki (Vasopressin V1a receptor [7]) [nM]	Ki (Vasopressin V2 receptor [8]) [nM]	Ki (Vasopressin V1a receptor [9]) [nM]	Ki (Vasopressin V2 receptor [10]) [nM]	Ki (Vasopressin V2 receptor [11]) [nM]
CC(=O)N1CCCC(COc2ccc(C(=O)N3CCC(N4C(=O)OCc5ccccc54)CC3)cc2)C1 (stereo not given)	11000	38000	340	24	200	–	–	–	–	–	–
CC(=O)NCCCOc1ccc(C(=O)N2CCC(N3C(=O)OCc4ccccc43)CC2)cc1	–	–	200	–	–	130	31	35000	36000	–	–
CC(=O)NCCCOc1ccc(C(=O)N2CCC(N3C(=O)NCc4ccccc43)CC2)cc1	–	–	2400	–	–	2100	> 1000	> 3000	62000	–	–
COc1cc(OC2CCN(C(C)=O)CC2)ccc1C(=O)N1CCC(N2C(=O)OCc3ccccc32)CC1	> 30000	3200	–	3.7	4.6	–	–	–	–	37000	–
CC(=O)NCCCOc1ccc(C(=O)N2CCC(N3C(=O)CCc4ccccc43)CC2)cc1	–	–	230	–	–	170	32	> 30000	52000	–	> 81000
CC(=O)N1CCCCC1CCOc1ccc(C(=O)N2CCC(N3C(=O)OCc4ccccc43)CC2)cc1 (stereo not given)	11000	22000	–	15	150	–	–	–	–	–	–
CC(=O)N1CCC(Oc2ccc(C(=O)N3CCC(N4C(=O)OCc5ccccc54)CC3)cc2)CC1	35000	12000	69	5.6	24	–	–	–	–	–	–
